Test results taken from US7112318B2, “Non-invasive diagnostic imaging technology for mitochondria dysfunction using radiolabeled lipophilic salts” (The Johns Hopkins University, priority 2002, dated 2006).
Values joined by “and” are separate entries in the source; they are usually repeats but may differ in a detail not shown here. Equal entries are not always repeated. Where two headings read alike, the source gives them in different places.

Assays:
[1] = tested on: myocardium; conditions: cited from earlier work; for myocardial extraction under baseline / normal flow: baseline or normal flow; for myocardial extraction at increased flow: five-fold increases in flow rate / high flow rates
[2] = tested on: myocardium; assay: C-11-TPMP uptake kinetics in the myocardium (dog PET, LAD occlusion); assay type: in vivo
Protocol: We have examined the performance of C-11-triphenyl phosphonium cation (TPMP) for assessing regional myocardial flow in dog using PET (Kraus, 1994).
Methods: Four mCi of C-11-TPMP were introduced i.v., and dynamic images of increasing duration (15 sec to 20 min) were acquired over a total time of 85 min. Images were acquired on the GE 4096+ PET scanner (15 slices, 6.5 mm slice thickness). Images were reconstructed using backprojection, and corrected for attenuation. A detailed description of methods appears in Kraus, 1994.
To investigate the relationship between myocardial blood flow and C-11-TPMP uptake in the heart, the LAD was occluded and the C-11-TPMP accumulation in tissue samples compared to microsphere determined regional myocardial blood flow. A significant correlation (r=0.93, p<0.01) was found at 5 min after LAD occlusion (FIG. 12). The non-infracted/infracted myocardium ratio was 12.1±2.4.

[3] = Biodistribution in mice 60 min after i.v. injection; conditions: 60 min after iv. injection
Protocol: (§1) Three to five mice were used for the biodistribution study of each tracer. Nonanesthetized animals were injected i.v. with tracer solution (FBnTP or FPTP, TPMP 25 μCi; MIBI 40 μCi; TPP 2 μCi, all in a volume of 0.2 mL saline) then killed by neck dislocation at 60 min after injection. The organs and tissues of interest were removed and counted by a radioactivity counter along with standards (1:1000) (LKB Wallac, 1282 Compugamma CS).

[4] = tested on: FCA-induced inflammation; assay: Accumulation in FCA-induced inflammation tissue and healthy muscle; assay type: in vivo; conditions: rats, 3 days after administration of FCA
Protocol: 0.1 ml of nitrosomethyl urea (NUM) was introduced i.p in female rats (150 g). When tumor reached an approximate size of 1 to 1.5 cm, FCA was injected (0.15 ml) to the hind limb footpad. Uptake assays were carried out 3 days thereafter. F-18-FBnTP (0.25 mCi) was injected via tail vein. Sixty minutes later tumor, inflamed tissue and healthy muscle tissue of the opposite limb (control) were collected on ice, weighed and counted in a gamma counter together with standards.
The accumulation of the novel F-18-phosphonium cations, F-18-FBnTP and F-18-fluoropropyl triphenyl phosphonium (F-18-FPTP) in comparison with F-18-FDG in FCA-induced inflammation and healthy tissue is presented in Table 2. Induction of inflammation and activity counting were carried out as described above.

[5] = mouse, in vivo, iv, 60 min
Protocol: as §1

[6] = tested on: prostate carcinoma; assay: Tumor selectivity in orthotopic model of prostate carcinoma; assay type: in vivo; conditions: nude mice, normalized to muscle
Protocol: Methods: 2×10^6 cells were injected, under anesthesia, into the prostate epithelial tissue of nude mice. When tumor reached an approximate size of 5 mm, uptake assays were performed as described above. Tumor selectivity of F-18-FBnTP and F-18-FDG was compared (3 mice in each group)

| SMILES | myocardial extraction under baseline / normal flow [1] | myocardial extraction at increased flow [1] | biodistribution, blood [3] [% ID/g] | biodistribution, heart [3] [% ID/g] | biodistribution, kidney [3] [% ID/g] | biodistribution, liver [3] [% ID/g] | biodistribution, lung [3] [% ID/g] | biodistribution, muscle [3] [% ID/g] | biodistribution, spleen [3] [% ID/g] | Inf/Control [4] | accumulation, Control (healthy muscle) [4] | accumulation, Inflammation [4] | biodistribution, brain [3] [% ID/g] | further results |
| --- | --- | --- | --- | --- | --- | --- | --- | --- | --- | --- | --- | --- | --- | --- |
| [201Tl] [Thallium 201] | about 80% | about 60% | – | – | – | – | – | – | – | – | – | – | – | – |
| [11CH3][P+](c1ccccc1)(c1ccccc1)c1ccccc1 [[11C]TPMP, C-11-triphenylmethyl phosphonium] | – | – | 0.03 ± 0.00 | 13.4 ± 0.95 | 3.79 ± 0.83 | 5.68 ± 0.60 | 2.20 ± 0.21 | 2.49 ± 0.35 | 1.43 ± 0.18 | – | – | – | – | extraction fraction in the heart ([2]; baseline conditions, flow=69 ml/min/100 g): 91%; decrease of the extraction fraction ([2]; five-fold increase in flow by adenosine): 39% |
| [18F]CCC[P+](c1ccccc1)(c1ccccc1)c1ccccc1 [[18F]FPTP, [^18F]3-fluoropropyltriphenyl-phosphonium ion] | – | – | 0.01 ± 0.00 | 9.86 ± 0.82 | 5.74 ± 0.54 | 4.22 ± 1.79 | 2.02 ± 0.34 | 2.06 ± 0.53 | 1.23 ± 0.26 | 0.25 ± 0.04 | 0.29 ± 0.06 % ID/g tissue | 0.07 ± 0.01 % ID/g tissue | 0.03 ± 0.00 | accumulation, Blood [4]: *0.037 ± 0.01 % ID/g tissue |
| c1ccc([P+](c2ccccc2)(c2ccccc2)c2ccccc2)cc1 [[^3H]TPP, tetraphenyl phosphonium] | – | – | – | – | – | – | – | – | – | – | – | – | – | biodistribution, blood [5]: 0.09 ± 0.02 % ID/g; biodistribution, brain [5]: 0.06 0.02 % ID/g; biodistribution, heart [5]: 20.7 ± 1.92 % ID/g; biodistribution, kidney [5]: 4.37 ± 0.66 % ID/g; biodistribution, liver [5]: 6.12 ± 1.08 % ID/g; biodistribution, lung [5]: 2.81 ± 0.41 % ID/g; biodistribution, muscle [5]: 2.22 ± 0.41 % ID/g; biodistribution, spleen [5]: 1.93 ± 0.47 % ID/g |
| OC[C@H]1OC(O)[C@H]([18F])[C@@H](O)[C@@H]1O (stereo partly drawn) [[^18F]FDG, reference compound] | – | – | – | – | – | – | – | – | – | 2.12 ± 0.73 and 1.20 ± 0.29 | 0.68 ± 0.14 % ID/g tissue and 1.05 ± 0.35 % ID/g tissue | 1.42 ± 0.53 % ID/g tissue and 1.20 ± 0.16 % ID/g tissue | – | uptake ratio of malignant-to-normal prostate tissue [6]: 1.25 |
| [99Tc].[C-]#[N+]CC(C)(C)OC.[C-]#[N+]CC(C)(C)OC.[C-]#[N+]CC(C)(C)OC.[C-]#[N+]CC(C)(C)OC.[C-]#[N+]CC(C)(C)OC.[C-]#[N+]CC(C)(C)OC [[^99mTc]MIBI, Tc-99m-sestamibii, reference compound] | about 60% | 40% | 0.26 ± 0.05 | 5.08 ± 0.25 | 12.6 ± 2.57 | 5.55 ± 1.08 | 0.98 ± 0.19 | 1.56 ± 0.31 | 1.27 ± 0.33 | – | – | – | 0.08 ± 0.04 | – |
